Assay results taken from patent publication US12479799B2, “Bioconjugation reagent and methods” (Universiteit Gent, priority 2019, dated 2025).

Assay: Glutathione exchange experiment (stability towards competing sulfhydryl groups, RP-HPLC)
Format: physicochemical
Conditions: 0.1 M sodium phosphate buffer pH 7, 10 equiv of glutathione, 37° C., 96 hours
Experimental: This example provides a stability experiment of the compound of the invention towards competing sulfhydryl groups.
Compound 4aa was incubated in a 0.1 M sodium phosphate buffer at pH 7 with 10 equiv of glutathione, incubated at 37° C. and shaken for 96 hours. The stability was checked using RP-HPLC [Phenomenex Luna C18 column using a flow rate of 1 mL/min; H2O method: 3 minutes column flushing with 100% H2O, then a gradient from 0 to 100% ACN in 20 minutes, followed by 5 minutes of flushing with 100% ACN]. […] Representative HPLC chromatogram is shown (FIG. 7).

Compound	stability of conjugated compound in presence of glutathione	GSH exchange reaction
CC1(O)C(SCCO)CC(=O)N1Cc1ccccc1 (centres unmarked) [4′aa, 1-benzyl-5-hydroxy-4-((2-hydroxyethyl)thio)-5-methylpyrrolidin-2-one]	stable	–
1-benzyl-5-hydroxy-4-((2-hydroxyethyl)thio)-5-methylpyrrolidin-2-one [Compound 4aa]	–	no GSH exchange reaction takes place
